According to patent US10653172B2, “Natural stilbenes as sweeteners or sweetener enhancer” (Analyticon Discovery GmbH, priority 2015, dated 2020):

What was measured:
[1] = test system: panel of 3 sweet sensitive panelists; test: Organoleptic test of sweetness enhancement in combination with sucrose; assay type: in vivo; details: concentration stated to be near the sweetness detection threshold
Description: Organoleptic Test of the Compounds of Formula (I) in Combination with Known Sweeteners
Combination of (I) with Sucrose.
The sweetness enhancement properties of compound Aa and Bb was determined using a sample having a concentration of 100 μg/ml compound Aa and Bb, which is near the sweetness detection threshold, in 7% sucrose solution. The compound Aa and Bb sample was directly compared to samples of 7%, 8% or 9% sucrose, and panelists were instructed to compare the sweetness intensity of the samples. The comparisons were carried out by a panel of 3 sweet sensitive panelists. All samples were presented to panelists in 5 ml aliquots at ambient temperature. Panelists compared the compound Aa and Bb sample to each of the sucrose samples.

panel of 4 panelists = test: Organoleptic test of intrinsic sweet taste against sucrose; assay type: in vivo; details: 0.5 mg/ml (500 ppm) in non-carbonated mineral water; for sweetness compared with a solution of sucrose 20 mg/ml (control solution): control sucrose 20 mg/ml
Description: Organoleptic Test of the Compounds of Formula (I) Against Sucrose
Intrinsic sweet taste: The isolated pure compounds were dissolved in non-carbonated mineral water (“Fonsana Quelle”) in a concentration of 0.5 mg/ml (500 ppm). The sweet taste of each sample was compared by a panel of 4 panelists with a solution of sucrose in a concentration of 20 mg/ml.

| Structure (SMILES) | sweetness detection threshold [1] [µg/mL] | off-taste (panel of 4 panelists) | sweetness compared with a solution of sucrose 20 mg/ml (control solution) (panel of 4 panelists) |
| --- | --- | --- | --- |
| COc1cc(/C=C/c2cc(O)cc(O)c2)ccc1O[C@@H]1O[C@H](CO)[C@@H](O)[C@H](O)[C@H]1O [Compound Aa, Gnetifolin E] | ~100 | no significant off-taste | comparable with the control solution |
| OC[C@H]1O[C@@H](Oc2ccc(/C=C/c3cc(O)cc(O)c3)cc2O)[C@H](O)[C@@H](O)[C@@H]1O [Compound Bb, Piceatannol 4′-O-β-D-glucopyranoside] | ~100 | no significant off-taste | comparable with the control solution |
